Test results from patent publication US6835382B2, “Ii peptide therapeutics to enhance antigen presentation” (University of Massachusetts, priority 1996, dated 2004).

T1: murine E^d MHC class II allele (Mus musculus, UniProt P01904+P01915)
T1 sequence (P01904 26-255): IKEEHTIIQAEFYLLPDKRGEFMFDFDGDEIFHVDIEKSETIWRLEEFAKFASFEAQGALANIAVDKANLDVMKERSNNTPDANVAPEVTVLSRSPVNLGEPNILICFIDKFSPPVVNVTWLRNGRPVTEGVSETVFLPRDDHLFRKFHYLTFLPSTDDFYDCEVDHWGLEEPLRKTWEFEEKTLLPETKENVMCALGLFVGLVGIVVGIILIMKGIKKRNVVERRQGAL
T1 sequence (P01915 27-264 limits assumed): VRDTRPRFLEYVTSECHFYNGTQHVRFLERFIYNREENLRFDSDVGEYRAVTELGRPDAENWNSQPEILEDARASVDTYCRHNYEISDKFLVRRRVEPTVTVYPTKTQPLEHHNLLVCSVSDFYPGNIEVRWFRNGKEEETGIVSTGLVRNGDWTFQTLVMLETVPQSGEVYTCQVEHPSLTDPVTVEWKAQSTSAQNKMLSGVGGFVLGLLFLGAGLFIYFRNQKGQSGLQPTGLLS

B1: AE401 (peptide)
peptide: Ac-LRMKLPKPP-NH2
B2: AE103 (peptide)
peptide: KLPKSAKPVSQMR
B3: AE106 (peptide)
peptide: YRMKLPKSAKPVSQ
B4: AE105 (peptide)
peptide: SAKPVSQMR
B5: AE104 (peptide)
peptide: PKSAKPVSQMR

Assays:
[1] = biological target: T1, murine E^d MHC class II allele; assay: simultaneous assay, E^d allele (A20 APC, G28.C9 T hybridoma, HEL106-116; HT-2 [3H]TdR readout); format: cell-based; design: The A20 and CH27 B cell lymphoma lines express H-2^d and H-2^k alleles, respectively; endogenous in cells; host or cells: A20 B cell lymphoma (mitomycin C-treated or paraformaldehyde-fixed); conditions: Table 1, 0.4 μM HEL106-116, supernatant 1:4
Experimental: (§1) Examples 1-4 (Tables 1-18) will be briefly considered in order to establish the concept of tolerance discussed above. These examples describe experimental results observed in the so-called “simultaneous” assay. In the simultaneous assay four principle components are cultured together for a 24 hour period. The components of this culture, which are added simultaneously, are: (a) an antigenic peptide characterized by the ability to bind specifically into the antigenic peptide binding groove of an MHC class II molecule, (b) mitomycin C-treated, MHC class II-positive antigen presenting cells (APC) bearing the MHC class II allele required for binding of the specific antigenic peptide, and presentation of the specific antigenic peptide to the antigenic peptide-specific T cell hybridoma, (c) an effector compound of the present invention, and (d) an MHC class II allele-restricted T cell hybridoma specific for the antigenic peptide and the MHC class II allele restricting its presentation. Following incubation of this primary culture, an aliquot of its supernatant is transferred into a second culture well for incubation with an interleukin-dependent lymphoblastoid cell line. The degree of stimulation of that second, indicator cell by the interleukins which had been released from the activated T cell hybridoma in the primary culture is measured by quantitating tritiated thymidine deoxyribose {[^3H]TdR} uptake into the DNA of the HT-2 indicator cells of that second culture.
(§2) In the “simultaneous assay” the four components of the assay are cultured together for a 24 h period. The components of this primary culture, added at the same time or simultaneously, are: (a) the antigenic peptide, (b) mitomycin C-treated, MHC class II-positive antigen presenting cells (APC) with the MHC class II allele required for binding of the specific antigenic peptide and its presentation to the antigenic peptide-specific T cell hybridoma, (c) an AE101 series effector peptide, and (d) MHC class II allele-restricted T cell hybridoma specific for the antigenic peptide and the MHC class II allele restricting its presentation. At the end of the incubation of this primary culture, an aliquot of its supernatant is transferred into a second culture well for incubation with an interleukin-dependent lymphoblastoid cell line. The degree of stimulation of that second, indicator cell by the interleukins which had been released from the activated T cell hybridoma in the primary culture is measured by quantitating tritiated thymidine deoxyribose {[^3H]TdR} uptake into the DNA of the HT-2 indicator cells of that second culture.
(§3) For these various assays, the following antigenic peptides were used: HEL11-25, hen egg lysozyme 11-25, AMKRHGLDNYRGYSL(A^d) (SEQ ID NO:5); HEL46-61, hen egg lysozyme 46-61, NTDGSTDYGILQINSR(Ak) (SEQ ID NO:6); HEL106-116, hen egg lysozyme 106-116, NAWVAWRNRCK (E^d) (SEQ ID NO:7); PGCC81-104, pigeon cytochrome c 81-104, […] (Ek) (SEQ ID NO:8), and THMCC82-103, tobacco hornworm moth cytochrome c 82-103, […] (Ek) (SEQ ID NO:9). AE101 series peptides were obtained from commercial sources. In general, the purity and composition of each peptide was confirmed by HPLC separation and mass spectrometry. The native protein antigens were HEL, hen egg lysozyme, and PGCC, pigeon cytochrome C. They were obtained from commercial sources.
(§4) For the experiments of these Examples, several T cell hybridomas, which are specific for certain antigenic peptides, were used. The TPc9.1 T hybridoma is specific for pigeon cytochrome C 81-104 peptide presented on the murine class II MHC allele E^k. The TPc9.1 hybridoma responds heteroclitically to tobacco hornworm moth cytochrome c 82-103 on E^k. The 3A9 T hybridoma is specific for hen egg lysozyme 46-61 on A^k. The 9.30.B2 hybridoma is specific for hen egg lysozyme 11-25 on A^d, and the G28.C9 hybridoma is specific for hen egg lysozyme 106-116 on E^d. […]

[2] = test system: murine E^k MHC class II allele; assay: simultaneous assay, E^k allele (CH27 APC, TPc9.1 T hybridoma, THMCC82-103 or PGCC81-104); format: cell-based; conditions: Table 1, 0.075 μM THMCC82-103, supernatant 1:2
Experimental: as §1, §2, §3, §4

HLA-DR1 molecules [3] = assay: release of biotin-labeled hMBP(90-102) from HLA-DR1 without unlabeled antigenic peptide (assay I); format: binding, human; conditions: for Relative Release: Table 36, fraction of o.d. of positive control (PBS only = 1.0; negative control = 0.0)
HLA-DR1 molecules [4] = assay: release of biotin-labeled hMBP(90-102) from HLA-DR1 in the presence of unlabeled hMBP (assay II); format: binding, human
[5] = biological target: soluble HLA-DR1 (HLA-DR alpha truncated after Asn192 with a C-terminal nine amino acid HA epitope tail; HLA-DR1 beta truncated after Lys198), made in Baculovirus-infected insect cells (human); assay: release ELISA: soluble HLA-DR1 tethered by 12CA5 and preloaded with biotin-hMBP(90-102); AE peptide 64 uM, 1 h 37 C, no unlabeled peptide; biotin still bound read by avidin-HRP (1.0 = PBS control, 0.0 = no DR1; low value = released)
[6] = biological target: soluble HLA-DR1 (HLA-DR alpha truncated after Asn192 with a C-terminal nine amino acid HA epitope tail; HLA-DR1 beta truncated after Lys198), made in Baculovirus-infected insect cells (human); assay: loading ELISA: empty tethered HLA-DR1 with biotin-hMBP(90-102) 50 uM and AE peptide 64 uM, 1 h 37 C; biotin bound read by avidin-HRP
[7] = biological target: soluble HLA-DR1 (HLA-DR alpha truncated after Asn192 with a C-terminal nine amino acid HA epitope tail; HLA-DR1 beta truncated after Lys198), made in Baculovirus-infected insect cells (human); assay: exchange ELISA: tethered HLA-DR1 preloaded with unlabeled hMBP(90-102) 50 uM, washed; AE peptide plus biotin-hMBP(90-102) 50 uM, 1 h 37 C; biotin bound as fraction of positive control (overnight loading)
[8] = AE peptide 16 μM (second value)

Molecule	Times Baseline Response, E^d [1, 8]	Times Baseline Response, E^d ([1]; AE peptide 64 μM (first value))	Times Baseline Response, E^k [2, 8]	Times Baseline Response, E^k ([2]; AE peptide 64 μM (first value))	Relative Release (HLA-DR1 molecules [3]; AE101 series compound 64 μM)	Relative Release (fraction of positive control o.d.) [5]	further results
RMKLPKSAKPVSQMR [AE102]	4.2	13.3	0.8	1.0	–	–	–
SAKPVSQMR [AE105]	1.1	4.5	0.8	0.7	0.16	–	–
YRMKLPKSAK [AE108]	11.6	32.0	0.9	1.2	1.14	–	Relative Release, With unlabeled hMBP(90-102), 1 μM (HLA-DR1 molecules [4]; Table 37, AE101 series compound 1 μM, unlabeled hMBP(90-102) 250 μM): 0.00; Relative Release, With unlabeled hMBP(90-102), 64 μM (HLA-DR1 molecules [4]; Table 37, AE101 series compound 64 μM, unlabeled hMBP(90-102) 250 μM): 0.14; Relative Release, Without unlabeled hMBP(90-102), 1 μM (HLA-DR1 molecules [3]; Table 37, AE101 series compound 1 μM, no unlabeled hMBP(90-102)): 0.52; Relative Release, Without unlabeled hMBP(90-102), 64 μM (HLA-DR1 molecules [3]; Table 37, AE101 series compound 64 μM, no unlabeled hMBP(90-102)): 0.31
YRMKLPKSAKPVSQ [AE106]	4.4	16.9	0.9	2.0	−0.12	–	release of hMBP(90-102) from HLA-DR1 (HLA-DR1 molecules [3]; AE peptide at 125 nM, additional experiments): completely release
unlabeled hMBP(90-102): human myelin basic protein (hMBP) peptide (90-102), antigenic peptide binding HLA-DR1, unlabeled (HLIRLFSRDAPGR) [reference compound]	–	–	–	–	–	–	release of biotin-labeled hMBP(90-102) (Relative Release) (HLA-DR1 molecules [4]; unlabeled hMBP(90-102) (250 μM) alone without AE101 series compounds): 0.81
B1	–	–	–	–	–	0.16	Relative Enhancement (of biotin-hMBP(90-102) binding to empty HLA-DR1) (relative to no AE peptide = 1) [6]: 4.29; Relative Binding (of biotin-hMBP(90-102) to HLA-DR1) (fraction of positive control o.d.) [7]: 0.45
B2	–	–	–	–	–	0.01	–
B3	–	–	–	–	–	-0.12	–
B4	–	–	–	–	–	–	Fraction of biotin-hMBP still bound (fraction of positive control o.d.) [5]: 0.16
B5	–	–	–	–	–	0.02	–
